Measurements taken from patent publication US5223527A, “Isatineoxime derivatives and their use” (NeuroSearch A/S, priority 1992, dated 1993).
Like-named read-outs stand apart in the source and are kept apart here.

Tests used:
AMPA binding site = assay: AMPA binding assay (T. Honore et al., Neuroscience Letters 54, 27-32 (1985))
[1] = tested on: AMPA-induced clonic seizures in NMRI mice; assay: AMPA-induced clonic seizures (AMPA seizure test); type: in vivo; details: Mus musculus, female NMRI mice, dose inhibiting 50% of the mice from having clonic seizures
Experimental: AMPA given icv (intracerebroventricular) (15 μg/kg) NMRI to mice induces clonic seizures which should be inhibited by non-NMDA receptor antagonists.
Test compound was given i.v. 5 min (or p.o. 30 min) before a 0.3 μg icv administration of AMPA to 10 female NMRI mice (weighing 24-26 g) per dose. The number of mice experiencing clonic seizures within the next 5 min was noted. An ED50 value was calculated as the dose inhibiting 50% of the mice from having clonic seizures.

CN(C)S(=O)(=O)c1cc2c(c3c1CCCC3)NC(=O)C2=NO [5-N,N-dimethylsulfamoyl-1H-6,7,8,9-tetrahydrobenz[g]indole-2,3-dione-3-oxime]
IC50 (AMPA binding site): 2000 nM | ED50 ([1]; iv, 5 min, administered i.v. 5 min before 0.3 μg icv AMPA, read-out: ED50 in the AMPA seizure test, i.v.): 3 mg/kg | ED50 ([1]; po, 0.5 h, administered orally (p.o.) 30 min before 0.3 μg icv AMPA, read-out: ED50 in the AMPA seizure test, orally): 30 mg/kg
